Experiments:
[1] = tested on: ERK MAPK; assay: ERK MAPK phosphorylation in WT and GluN2A-KO mouse neuron cultures (immunoblot); type: cell-based, mice; conditions: L-homocysteine 50 μM
From the text: Primary cortical neuronal cultures were established from embryos obtained from pregnant Sprague Dawley female rats (16-17 day gestation) as previously described (Podder and Paul, 2009, J Neurochem 110:1095-1106; Poddar and Paul, 2013, J Neurochem 124: 558-570). Primary cortical neuronal cultures were also developed from pregnant wildtype or GluN2A-knockout mice (15-16 day gestation) using similar protocols. The cells were maintained in culture for 12-14 days prior to treatment with homocysteine. L-homocysteine (200 mM stock) was prepared by alkali hydrolysis of L-homocysteine thiolactone hydrochloride followed by neutralization with 2N HCL and maintained in 0.02 mM N-Tris(hydroxymethyl)methyl-2-aminoethanesulfonicd acid (TES) buffer pH 7.4 (Poddar et al., 2001, Circulation 103:2717-2723). For receptor stimulation neurons were treated with freshly prepared 50 μM of L-homocysteine in Hank's balanced salt solution (Podder and Paul, 2009, J Neurochem 110:1095-1106; Poddar and Paul, 2013, J Neurochem 124: 558-570) containing 50 μM of glycine (Lipton et al., 1997, Proc Natl Acad Sci USA 94:5923-5928). In a subset of culture plates, pharmacological inhibitors (NVP-AAM007) were added […] prior to homocysteine addition and maintained during homocysteine treatment. Cells were processed for immunoblotting or Hoechst DNA staining.
Equal protein from total cell lysates obtained from rat and mice neuronal cultures were resolved in 7.5% SDS-PAGE, and subjected to immunoblotting procedure as described earlier (Podder and Paul, 2009, J Neurochem 110:1095-1106). Blots were analyzed with antibodies as described in each experiment. All primary antibodies (anti-pERK, anti-ERK) and secondary-horse radish peroxidase conjugated antibody concentrations were used according to recommendations provided by the manufacturer. Signals from immune complexes in the blots were developed using West Pico supersignal chemiluminescence reagents and then captured on X-ray films. Densitometric analysis of the images was performed using the Image J software.
Embryos obtained from pregnant Sprague Dawley rats (16-17-day gestation) or wild type (WT) and GluN2A KO mice (15-16-day gestation) were used to establish primary cortical neuronal cultures as previously described (Poddar and Paul, 2009, J Neurochem 110:1095-1106; Poddar and Paul, 2013, J Neurochem 124:558-570; Poddar et al., 2017, J Neurochem 142:560-573). Neurons were grown on either (a) 35-mm culture dishes (MatTek Corp., Ashland, Mass.) coated overnight with poly-D-lysine (50 μg/ml) and laminin (10 μg/ml) for Ca^2+ imaging studies, (b) poly-D-lysine-coated 60 mm dishes (Corning BIOCOAT, Corning Inc., Corning, N.Y.) for biochemical studies, or (c) poly-D-lysine-coated 4-well culture slides (Corning BIOCOAT, Corning Inc., Corning, N.Y.) for cell death assay. Neurons were maintained in culture for 12-13 days before experiment. The cells were treated with freshly prepared L-homocysteine (50 μM) in Hank's balanced salt solution containing 50 μM of glycine (Lipton et al., 1997, Proceedings of the National Academy of Sciences of the United States of America 94:5923-5928; Poddar and Paul, 2009, J Neurochem 110:1095-1106; Poddar and Paul, 2013, J Neurochem 124:558-570; Poddar et al., 2017, J Neurochem 142:560-573) for the specified time periods. In a parallel series of experiments, cells were treated with glutamate (50 μM) for the specified time periods. Cells were then processed for live cell imaging, immunoblotting or cell death assay. […]

[2] = tested on: neuron cultures from WT and GluN2A-KO mice; assay: Neuronal cell death by Hoechst DNA staining, WT and GluN2A-KO mouse neuron cultures; type: cell-based; conditions: for neuronal death: homocysteine 50 μM, 18 hours; for cell death: L-homocysteine 50 μM, 24 hours
Protocol: Neurons were subjected to staining with Hoechst 33342 dye for 15 minutes, washed extensively with PBS, and analyzed using fluorescent microscopy to assess nuclear damage. Imaging was performed with a Zeiss Axiovert 200M fluorescence microscope with attached AxioCam CCD camera using 20× objective lens (Carl Zeiss, Thomwood, N.Y.). To quantitatively assess the percentage of pyknotic nuclei a total of 1000 cells were counted for each set of experiments. Mean±SEM (n=3) were used for statistical comparison using ANOVA (Bonferroni's multiple comparison test). Differences were considered significant when p<0.05.
[…] Glutamate treated cells were then maintained in their original medium for another 17 hours. For some experiments, neurons were treated with L-homocysteine or glutamate in the presence of NVP-AAM077 or PD98059. The neurons were then fixed and stained with Hoechst 33342 dye as previously described (Poddar and Paul, 2009, J Neurochem 110:1095-1106). Percentage of pyknotic nuclei was quantitatively assessed by fluorescent microscopy to determine the extent of neuronal death.

[3] = tested on: cPLA2; assay: cPLA2 activity in WT and GluN2A-KO mouse neuronal lysates; type: cell-based, mice; conditions: L-homocysteine 50 μM, four hours
Protocol: Neuron cultures were treated with or without L-homocysteine in the presence or absence of pharmacological inhibitors for the time period specified in each experiment. The medium was collected from each experimental plate and centrifuged at 1000 rpm for five minutes to remove cellular debris. Equal amounts (100 μl) of the supernatant from each sample were used to determine the amount of PGE2 using the PGE2 enzyme immunoassay kit according to the manufacturer's instructions. For measurement of cPLA2 activity, the neuronal cells from the above treated conditions were harvested in ice-cold Tris-buffered saline (pH7.4) containing sodium pyrophosphate as phosphatase inhibitor, sonicated three times with five-second bursts and two minutes on ice between intervals. The lysed cell suspensions were centrifuged at 10,000 rpm for 10 minutes and the supernatant removed. Equal amounts of protein from the supernatant (assessed using BCA protein estimation kit) were estimated for activity of cPLA2 using cPLA2 activity assay kit according to the manufacturer's protocol.
For measurement of cPLA2 activity and MCP-1 levels in cell lysates, neuronal lysates were prepared by harvesting neurons in ice-cold Tris-buffered saline (pH 7.4) containing phosphatase inhibitor, sonicated three times in five-second bursts and placed on ice (two minutes) between each burst of sonication. […]

In the case of `N[C@@H](CCS)C(=O)O` [L-homocysteine], the “ERK MAPK phosphorylation” value ([1]; neurons from GluN2A KO mice, 30 or 60 minutes) is reported as “fails to induce ERK MAPK phosphorylation”, the “ERK MAPK phosphorylation” value ([1]; neurons from GluN2A-KO mice, four hours) is reported as “remains unchanged” and the “ERK MAPK phosphorylation” value ([1]; neurons from WT mice, 30 or 60 minutes) is reported as “sustained increase in ERK MAPK phosphorylation”. For the same compound, the “ERK MAPK phosphorylation” value ([1]; neurons from WT mice, four hours) was “significant increase in ERK MAPK phosphorylation”, the neuronal death ([2]; cultures from GluN2A KO mice) was “fails to induce neurotoxicity” and the neuronal death ([2]; cultures from WT mice) was “significantly increases neuronal death”. The cell death ([2]; neurons from GluN2A-NMDAR knockout mice) was “fails to alter cell death”, the cell death ([2]; neurons from WT mice) was “significant increase in cell death” and the cPLA2 activity ([3]; neurons from GluN2A-KO mice) was “cPLA2 activity remain unchanged”. For the same compound, the cPLA2 activity ([3]; neurons from WT mice) was “cPLA2 activity increase significantly”.

From patent US11541065B2, “Compositions and methods for treating brain injury” (UNM RAINFOREST INNOVATIONS, priority 2018, dated 2023)
